Results reported in US20230278972A1, “SUBSTITUTED HALOALKYL SULFONANILIDE HERBICIDES” (FMC Corporation, priority 2020, published 2023).

Experiments:
Type in all cases: in vivo
[1] = system: wheat (Triticum aestivum); experiment: Test A postemergence, wheat; details: Postemergence
Procedure, shortened: (§1)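 Seeds are sown in loam mixed with sand and sprayed on the soil surface right after planting for the preemergence test. Postemergence pots are sprayed once seedlings reach 2 to 10 cm at the one- to two-leaf stage. The same surfactant-containing, non-phytotoxic solvent formulation serves both.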

[2] = system: Ryegrass, Italian (Italian ryegrass, Lolium multiflorum); experiment: Test A postemergence, Ryegrass, Italian; details: Postemergence
Procedure, shortened: (§2)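 Pots: loam soil/sand blend. Pre: directed soil spray at planting. Post: plants 2–10 cm, 1–2 leaf stage. Formulation: non-phytotoxic solvent + surfactant.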

[3] = system: kochia (Bassia scoparia); experiment: Test A preemergence, kochia; details: Preemergence; for Plant response rating, Kochia: 31 g ai/ha, visual injury, 0 to 100 scale (0 no effect, 100 complete control), approx. 10 days; for Kochia plant response rating: 125 g ai/ha, visual injury on 0 to 100 scale (0 no effect, 100 complete control), approximately 10 days
Procedure, shortened: as §2

[4] = system: ragweed (common ragweed, Ambrosia artemisiifolia); experiment: Test A preemergence, ragweed; details: Preemergence; for Plant response rating, Ragweed: 31 g ai/ha, visual injury, 0 to 100 scale (0 no effect, 100 complete control), approx. 10 days; for Ragweed plant response rating: 125 g ai/ha, visual injury on 0 to 100 scale (0 no effect, 100 complete control), approximately 10 days
Procedure, shortened: as §2

[5] = system: kochia (Bassia scoparia); experiment: Test A postemergence, kochia; details: Postemergence
Procedure, shortened: as §2

[6] = system: corn (Zea mays); experiment: Test A postemergence, corn; details: Postemergence
Procedure, shortened: as §2

[7] = system: blackgrass (Alopecurus myosuroides); experiment: Test A postemergence, blackgrass; details: Postemergence
Procedure, shortened: as §2

[8] = system: Ryegrass, Italian (Italian ryegrass, Lolium multiflorum); experiment: Test A preemergence, Ryegrass, Italian; details: Preemergence; for Plant response rating, Ryegrass, Italian: 31 g ai/ha, visual injury, 0 to 100 scale (0 no effect, 100 complete control), approx. 10 days; for Ryegrass, Italian plant response rating: 125 g ai/ha, visual injury on 0 to 100 scale (0 no effect, 100 complete control), approximately 10 days
Procedure, shortened: as §2

[9] = system: Foxtail, Giant (giant foxtail, Setaria faberi); experiment: Test A preemergence, Foxtail, Giant; details: Preemergence; for Plant response rating, Foxtail, Giant: 31 g ai/ha, visual injury, 0 to 100 scale (0 no effect, 100 complete control), approx. 10 days; for Foxtail, Giant plant response rating: 125 g ai/ha, visual injury on 0 to 100 scale (0 no effect, 100 complete control), approximately 10 days
Procedure, shortened: as §2

[10] = system: pigweed (Amaranthus retroflexus); experiment: Test A postemergence, pigweed; details: Postemergence
Procedure, shortened: as §2

[11] = system: Foxtail, Giant (giant foxtail, Setaria faberi); experiment: Test A postemergence, Foxtail, Giant; details: Postemergence
Procedure, shortened: as §2

[12] = system: pigweed (Amaranthus retroflexus); experiment: Test A preemergence, pigweed; details: for Plant response rating, Pigweed: 31 g ai/ha, visual injury, 0 to 100 scale (0 no effect, 100 complete control), approx. 10 days; for Pigweed plant response rating: 125 g ai/ha, visual injury on 0 to 100 scale (0 no effect, 100 complete control), approximately 10 days
Procedure, shortened: as §1

[13] = system: ragweed (common ragweed, Ambrosia artemisiifolia); experiment: Test A postemergence, ragweed; details: Postemergence
Procedure, shortened: as §2

[14] = system: barnyardgrass (Echinochloa crus-galli); experiment: Test A postemergence, barnyardgrass; details: Postemergence
Procedure, shortened: as §1

[15] = system: galium (catchweed bedstraw, Galium aparine); experiment: Test A postemergence, galium; details: Postemergence
Procedure, shortened: as §1

[16] = system: barnyardgrass (Echinochloa crus-galli); experiment: Test A preemergence, barnyardgrass; details: Preemergence; for Plant response rating, Barnyardgrass: 31 g ai/ha, visual injury, 0 to 100 scale (0 no effect, 100 complete control), approx. 10 days; for Barnyardgrass plant response rating: 125 g ai/ha, visual injury on 0 to 100 scale (0 no effect, 100 complete control), approximately 10 days
Procedure, shortened: as §2

[17] = 31 g ai/ha, visual injury on 0 to 100 scale (0 no effect, 100 complete control), approx. 10 days
[18] = 125 g ai/ha, 0 to 100 scale (0 no effect, 100 complete control)
[19] = 31 g ai/ha, 0 to 100 scale (0 no effect, 100 complete control)

| Compound | Plant response rating, Wheat [1, 17] | Plant response rating, Wheat [1, 18] | Plant response rating, Ryegrass, Italian [2, 17] | Plant response rating, Ryegrass, Italian [2, 18] | Plant response rating, Kochia [3] | Kochia plant response rating [3] | Plant response rating, Ragweed [4] | Ragweed plant response rating [4] | Plant response rating, Kochia [5, 17] | Plant response rating, Kochia [5, 18] | Plant response rating, Corn [6, 17] | Plant response rating, Corn [6, 18] | Plant response rating, Blackgrass [7, 18] | Plant response rating, Ryegrass, Italian [8] | Ryegrass, Italian plant response rating [8] | Plant response rating, Foxtail, Giant [9] | Foxtail, Giant plant response rating [9] | Plant response rating, Pigweed [10, 17] | Plant response rating, Pigweed [10, 18] | Plant response rating, Foxtail, Giant [11, 17] | also measured |
| --- | --- | --- | --- | --- | --- | --- | --- | --- | --- | --- | --- | --- | --- | --- | --- | --- | --- | --- | --- | --- | --- |
| Cc1cc(C)c(N(COC(=O)c2ccccc2)S(=O)(=O)C(F)(F)F)cc1C1=NOC2(CCCC2)C1 [Compound 149] | 0 | 0 | 0 | 0 | 0 | 0 | 0 | 0 | 0 | 10 | 0 | 0 | 20 | 50 | 50 | 30 | 80 | 0 | 40 | 0 | Plant response rating, Blackgrass [7, 19]: 0; Plant response rating, Foxtail, Giant [11, 18]: 30; Plant response rating, Pigweed [12]: 30; Pigweed plant response rating [12]: 70; Plant response rating, Ragweed [13, 17]: 0; Plant response rating, Ragweed [13, 18]: 20; Plant response rating, Barnyardgrass [14, 19]: 10; Plant response rating, Barnyardgrass [14, 18]: 40; Plant response rating, Galium [15, 17]: 0; Plant response rating, Galium [15, 18]: 60; Plant response rating, Barnyardgrass [16]: 0; Barnyardgrass plant response rating [16]: 0 |
| Cc1cc(C)c(N(COC(=O)C2CCCC2)S(=O)(=O)C(F)(F)F)cc1C1=NOC2(CCCC2)C1 [Compound 150] | 0 | 60 | 0 | 0 | 0 | 0 | 0 | 0 | 10 | 10 | 0 | 0 | 0 | 40 | 90 | 20 | 100 | 20 | 40 | 0 | Plant response rating, Blackgrass [7, 19]: 0; Plant response rating, Foxtail, Giant [11, 18]: 20; Plant response rating, Pigweed [12]: 40; Pigweed plant response rating [12]: 100; Plant response rating, Ragweed [13, 17]: 0; Plant response rating, Ragweed [13, 18]: 0; Plant response rating, Barnyardgrass [14, 19]: 0; Plant response rating, Barnyardgrass [14, 18]: 50; Plant response rating, Galium [15, 17]: 40; Plant response rating, Galium [15, 18]: 60; Plant response rating, Barnyardgrass [16]: 0; Barnyardgrass plant response rating [16]: 90 |
| CCC(C)C(=O)OCN(c1cc(C2=NOC3(CCCC3)C2)c(C)cc1C)S(=O)(=O)C(F)(F)F (stereo not shown) [Compound 151] | 0 | 50 | 0 | 0 | 0 | 0 | 0 | 30 | 10 | 10 | 0 | 10 | 0 | 30 | 90 | 60 | 100 | 30 | 30 | 0 | Plant response rating, Blackgrass [7, 19]: 0; Plant response rating, Foxtail, Giant [11, 18]: 30; Plant response rating, Pigweed [12]: 50; Pigweed plant response rating [12]: 90; Plant response rating, Ragweed [13, 17]: 0; Plant response rating, Ragweed [13, 18]: 40; Plant response rating, Barnyardgrass [14, 19]: 0; Plant response rating, Barnyardgrass [14, 18]: 30; Plant response rating, Galium [15, 17]: 60; Plant response rating, Galium [15, 18]: 70; Plant response rating, Barnyardgrass [16]: 0; Barnyardgrass plant response rating [16]: 90 |
| Cc1cc(C)c(N(COC(=O)CC(C)C)S(=O)(=O)C(F)(F)F)cc1C1=NOC2(CCCC2)C1 [Compound 152] | 40 | 30 | 0 | 0 | 0 | 0 | 0 | 30 | 10 | 10 | 10 | 0 | 0 | 0 | 40 | 40 | 80 | 30 | 60 | 10 | Plant response rating, Blackgrass [7, 17]: 0; Plant response rating, Foxtail, Giant [11, 18]: 10; Plant response rating, Pigweed [12]: 30; Pigweed plant response rating [12]: 100; Plant response rating, Ragweed [13, 17]: 0; Plant response rating, Ragweed [13, 18]: 40; Plant response rating, Barnyardgrass [14, 17]: 0; Plant response rating, Barnyardgrass [14, 18]: 10; Plant response rating, Galium [15, 17]: 20; Plant response rating, Galium [15, 18]: 60; Plant response rating, Barnyardgrass [16]: 0; Barnyardgrass plant response rating [16]: 70 |
| Cc1cc(Cl)c(NS(=O)(=O)C(F)(F)F)cc1C(=O)N1CCOCC1(C)C [Compound 153] | 0 | 30 | 30 | 80 | 60 | 80 | 40 | 60 | 0 | 10 | 0 | 20 | 50 | 30 | 70 | 40 | 90 | 0 | 30 | 10 | Plant response rating, Blackgrass [7, 17]: 0; Plant response rating, Foxtail, Giant [11, 18]: 20; Plant response rating, Pigweed [12]: 80; Pigweed plant response rating [12]: 90; Plant response rating, Ragweed [13, 17]: 30; Plant response rating, Ragweed [13, 18]: 70; Plant response rating, Barnyardgrass [14, 17]: 10; Plant response rating, Barnyardgrass [14, 18]: 50; Plant response rating, Galium [15, 17]: 60; Plant response rating, Galium [15, 18]: 70; Plant response rating, Barnyardgrass [16]: 0; Barnyardgrass plant response rating [16]: 70 |
